Test results published in patent US12649783B2, “Anti-MCT1 antibodies and uses thereof” (IMMUNEXT INC., priority 2018, dated 2026).

Columns and labels:
Tr1 cells = test: ex vivo Tr1 survival; type: cell-based, human
Procedure: Humanized NSG mice (treated with anti-MCT1) were sacrificed on d32 or other day specified, single cells suspensions were prepared from spleens, followed by bead-based enrichment of hCD3+ cells. Isolated cells were plated with the analytes (see above table) to access Tr1 survival: […]

MCT1 = molecular target: T1, MCT1 (Homo sapiens, UniProt P53985); test: bromopyruvate toxicity assay (ATPlite); type: cell-based
T1 construct: HEK-293 WT cells only express MCT1/CD147 and no other MCTs as measured by RT-PCR; endogenous in cells; host or cells: HEK293T
T1 sequence (P53985 1-500): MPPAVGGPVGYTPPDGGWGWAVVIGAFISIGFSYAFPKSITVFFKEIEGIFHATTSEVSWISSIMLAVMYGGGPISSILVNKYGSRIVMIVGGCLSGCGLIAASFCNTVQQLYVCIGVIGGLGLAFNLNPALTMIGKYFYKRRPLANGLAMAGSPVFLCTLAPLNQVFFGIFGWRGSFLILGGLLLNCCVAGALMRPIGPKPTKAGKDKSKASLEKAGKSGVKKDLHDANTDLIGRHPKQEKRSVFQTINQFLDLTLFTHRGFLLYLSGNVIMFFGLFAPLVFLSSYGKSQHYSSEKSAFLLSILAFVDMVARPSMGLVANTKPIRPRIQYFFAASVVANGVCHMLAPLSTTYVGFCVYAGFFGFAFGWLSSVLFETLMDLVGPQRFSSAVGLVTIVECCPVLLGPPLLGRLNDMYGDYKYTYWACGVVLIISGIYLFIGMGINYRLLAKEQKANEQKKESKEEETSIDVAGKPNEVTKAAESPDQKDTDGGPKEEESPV
Procedure: Inhibition of bromopyruvate toxicity. Since MCT1 is the sole transporter necessary for the in vitro efficacy of the anti-cancer toxin bromopyruvate (Reference 66), a second cell-based functional assay was developed to measure the in vitro killing of cells using this toxin at a concentration of 150 μM.
HEK293T cells are pre-treated with anti-MCT1 antibody or small molecular MCT1 inhibitor at 37° C. for 1 hour. Cells are then incubated with a cytotoxic reagent 3-bromopyruvate (3-BrPy) at concentrations that rand from 25 to 500 μM for 2 to 6 hours. ATP from dying cells will be quantified using a commercial viability kit (ATPlite, PerkinElmer) in a 96-well plate and viability measured using luminescence. Reduction of ATP production indicates functionality of the antibody. A positive control antibody is the mouse or chimeric antibody before humanization. A negative control cell line is MCT1/CD147 double knockout 293T cells. Using this assay functional, i.e., antagonistic anti-MCT1 antibodies may be identified.

## IL-15: Recombinant Human IL-15 (carrier-free), Biolegend 570304
Tr1 cells
  ex vivo Tr1 survival: increased ex vivo Tr1 survival in a dose-dependent manner

B1: LM183: chicken anti-human MCT1 antibody; HC/LC SEQ ID NO: 164/169 (antibody)
heavy: AVTLDESGGGLQTPGGTLSLVCKASGFDFSNYEMLWVRQAPGKGLEYVAGIGDSASYSAYGVAVKGRATISRDNGQSTLRLQLNGLRAEDTGTYYCTKASEGSYWYYEAGGIDTWGHGTEVIVSS
light: ALTQPSSVSANLGGTVKITCSGGGGSYGWYQQKSPGSAPVTVIYDNDKRPSDIPSRFSGSKSGSTATLTITGVRAEDEAVYYCGSAGNSGAFGAGTTLTVL
modifications: HC Protein; LC Protein
MCT1
  block of human MCT1 function: block human MCT1 function
